Data on 1 compound can be found in patent US9765075B2, “Substituted bridged urea analogs as sirtuin modulators” (GLAXOSMITHKLINE LLC, priority 2013, dated 2017).

Structures are written as SMILES. Changes are numbered by the printed parent chain. Structures can show the parent of a compound that is named as a salt.

One experiment deals with T1, full-length hSIRT1 E230Q (Homo sapiens, UniProt Q96EB6, E230Q).
T1 construct: His6 (C); made in house
T1 sequence (Q96EB6 1-747 E230Q): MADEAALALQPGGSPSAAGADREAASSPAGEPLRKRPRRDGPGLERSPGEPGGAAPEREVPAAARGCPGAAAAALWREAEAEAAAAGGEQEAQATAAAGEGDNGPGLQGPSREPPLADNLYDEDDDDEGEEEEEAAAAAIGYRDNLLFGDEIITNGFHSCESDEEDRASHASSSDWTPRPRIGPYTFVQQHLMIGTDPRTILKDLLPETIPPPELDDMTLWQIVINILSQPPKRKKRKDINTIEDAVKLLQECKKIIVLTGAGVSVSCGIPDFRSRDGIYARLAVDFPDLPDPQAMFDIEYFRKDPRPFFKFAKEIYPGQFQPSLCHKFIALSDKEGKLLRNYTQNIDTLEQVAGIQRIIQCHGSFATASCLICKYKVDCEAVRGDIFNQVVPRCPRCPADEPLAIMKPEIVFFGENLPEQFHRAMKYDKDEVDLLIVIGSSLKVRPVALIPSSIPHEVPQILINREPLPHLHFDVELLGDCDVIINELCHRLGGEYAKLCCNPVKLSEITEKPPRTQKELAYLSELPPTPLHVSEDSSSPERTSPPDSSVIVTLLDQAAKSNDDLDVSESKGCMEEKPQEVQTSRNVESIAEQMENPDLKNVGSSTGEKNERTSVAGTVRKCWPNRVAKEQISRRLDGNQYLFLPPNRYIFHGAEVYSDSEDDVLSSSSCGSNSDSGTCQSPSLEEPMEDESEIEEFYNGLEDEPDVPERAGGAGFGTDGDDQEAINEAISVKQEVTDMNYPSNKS
Description: SIRT1 inhibition assay, OAcADPr mass spectrometry. It is filed as biochemical.

Another experiment addresses T2, full-length hSIRT1 E230A (Homo sapiens, UniProt Q96EB6, E230A).
T2 construct: His6 (C); made in house
T2 sequence (Q96EB6 1-747 E230A): T1 sequence (Q96EB6 1-747 E230Q) with Q230A
The experiment can be described thus: SIRT1 inhibition assay, OAcADPr mass spectrometry. It is filed as biochemical.

As to `CCCC[C@H](NC(=O)[C@H](CC(C)C)NC(=O)[C@H](CCCCNC(=O)C(F)(F)F)NC(=O)[C@H](CCCCN)NC(=O)[C@H](Cc1c[nH]cn1)NC(=O)[C@H](CCCNC(=N)N)NC(C)=O)C(=O)N[C@@H](Cc1ccccc1)C(N)=O` [TFA-p53 7-mer, Ac-RHK-K^TFA-L-Nle-F-NH2], the half-inhibitory concentration (IC50) (usually the concentration that gives 50% inhibition) against full-length hSIRT1 E230Q is 860 ± 60 nM; on full-length hSIRT1 E230A, 1300 ± 400 nM.
